This is an account of results in the OligoGym collection.

After the bases stand the sugars from the 5' end (letter, count) and the backbone: PS all phosphorothioate, else s phosphorothioate and o phosphodiester by linkage. Methylation of C is not given here. e = 2'-O-(2-methoxyethyl) (MOE); k = constrained ethyl (cEt); d = 2'-deoxy (DNA); m = 2'-O-methyl

The target of this data set is HSD17B13. The note with it: ASO, HepaRG.

Regarding TTGATATTCTGTGGCA (sugars k3 d10 k3, PS), the target mRNA inhibition by setting is: (0.02 µM) 0%; (0.078 µM) 17%; (0.313 µM) 58%; (1 µM) 87%; (1.25 µM) 80%; (5 µM) 94%.

In turn, TTCACCACGATTGTTA (sugars k3 d10 k3, PS) showed a target mRNA inhibition (1 µM) of 40%.

Where the note is “1 µM”, AAATAGAGTCGGTCAC (sugars k3 d10 k3, PS) yielded a target mRNA inhibition of 59%.

On to TTAAGGATCATTGCAG (sugars k3 d10 k3, PS), for which the target mRNA inhibition (1 µM) stood at 14%.

Sequence TGGAACAATATGGGAT (sugars k3 d10 k3, PS) had a target mRNA inhibition (1 µM) of 46%.

The sequence “TTATGTGATTGAGTTC (sugars kkdddddddddkekek, PS)” returned a target mRNA inhibition (1 µM) of 21%.

In the case of “AAGTTAGCCCCCAGGA (sugars kkdddddddddkekek, PS)”, the target mRNA inhibition (1 µM) was 12%.

Under “1 µM”, “TGTCCAGGTTGAGATA (sugars k3 d1 m1 d8 k3, PS)” had a target mRNA inhibition of 41%.

Where the note is “1 µM”, TCTTCACCTGATTTAG (sugars k3 d10 k3, PS) showed a target mRNA inhibition of 24%.

In turn, CTCCAGTAATGAGAAC (sugars k3 d10 k3, PS) registered a target mRNA inhibition (1 µM) of 40%.

For the setting “1 µM”, TCATATCCAGTAGGTG (sugars k3 d10 k3, PS) yielded a target mRNA inhibition of 32%.

Regarding GTGGCATGGCTACAGA (sugars k3 d10 k3, PS), the target mRNA inhibition (1 µM) is 56%.

Under “1 µM”, CACATACGCATGCGCA (sugars k3 d10 k3, PS) gave a target mRNA inhibition of 59%.

For the sequence “AGAAATTCACCTTGAC (sugars k3 d1 m1 d8 k3, PS)”, under “1 µM”, the target mRNA inhibition came out at 9%.

As for GCCAAACTGCTACTGT (sugars k3 d10 k3, PS), the target mRNA inhibition reads like this: (0.02 µM) 1%; (0.078 µM) 13%; (0.313 µM) 41%; (1 µM) 73%; (1.25 µM) 63%; (5 µM) 76%.

Under “1 µM”, “CATCTCTGGGACCAAG (sugars k3 d9 k3 e1, PS)” yielded a target mRNA inhibition of 42%.

Consider “CGTTUTGGGCTAATGA (sugars k3 d1 m1 d8 k3, PS)”, for which, where the note is “1 µM”, the target mRNA inhibition is 34%.

On to TATATACATCAACTCC (sugars k3 d10 k3, PS), for which the target mRNA inhibition (1 µM) amounted to 61%.

Where the note is “1 µM”, ATGTGATTGAGTTCTC (sugars k3 d10 k3, PS) yielded a target mRNA inhibition of 36%.

In the case of ATGTAATAGGCAGTAA (sugars k3 d10 k3, PS), where the note is “1 µM”, the target mRNA inhibition stood at 33%.

GTTGGAAGATGTATAC (sugars k3 d10 k3, PS) returned a target mRNA inhibition (1 µM) of 53%.

Sequence “GTAAUCACAAGTAAGG (sugars k3 d1 m1 d8 k3, PS)” showed a target mRNA inhibition (1 µM) of 20%.

TAACTAACCTGACACA (sugars k3 d10 k3, PS) registered a target mRNA inhibition (1 µM) of 57%.

For CCTAATAACTACATGA (sugars k3 d10 k3, PS), the target mRNA inhibition (1 µM) is 3%.

In turn, TTAGTTAGAATAGTCT (sugars k3 d10 k3, PS) came in with a target mRNA inhibition (1 µM) of 8%.

As to AGTAAATTGAATAGCC (sugars k3 d10 k3, PS), the target mRNA inhibition (1 µM) was determined as 39%.

As to TCTACAAAACTGGTAT (sugars k3 d10 k3, PS), under “1 µM”, the target mRNA inhibition is 9%.

In the case of AAATATGTCCAGGTTG (sugars k3 d10 k3, PS), the target mRNA inhibition (1 µM) was found to be 68%.

With “TGCAGCATTGATTCGA (sugars kkdddddddddkekek, PS)”, for the setting “1 µM”, the target mRNA inhibition was 42%.

In the case of TGCTACTCTAGGAGAT (sugars k3 d10 k3, PS), the target mRNA inhibition (1 µM) is 60%.

In the case of CTTTGCAGCATTGATT (sugars k3 d10 k3, PS), the target mRNA inhibition (1 µM) stood at 47%.

Regarding TATTGTAGGGATTGAA (sugars k3 d10 k3, PS), for the setting “1 µM”, the target mRNA inhibition stood at 40%.

Sequence CACCTTTCATAATGTA (sugars k3 d10 k3, PS) displayed a target mRNA inhibition (1 µM) of 59%.

In turn, GTCCACCTTTAAATGG (sugars k3 d10 k3, PS) had a target mRNA inhibition (1 µM) of 33%.

Turning to GGGACCAATATAATCC (sugars k3 d10 k3, PS), the target mRNA inhibition (1 µM) is 31%.

As to GTAATTTTCAGATCCC (sugars k3 d10 k3, PS), the target mRNA inhibition reads like this: (0.02 µM) 24%; (0.078 µM) 43%; (0.313 µM) 69%; (1 µM) 82%; (1.25 µM) 88%; (5 µM) 88%.

GCTAGTAATTGCATCT (sugars k3 d10 k3, PS): the target mRNA inhibition (1 µM) came to 47%.

Turning to “CTCTGGGACCAAGGAT (sugars k3 d1 m1 d8 k3, PS)”, the target mRNA inhibition (1 µM) stood at 43%.

For the sequence “GTGTAAGCTGAGAGTT (sugars k3 d9 k3 e1, PS)”, under “1 µM”, the target mRNA inhibition was 45%.

AGACAGGTAATTAATC (sugars k3 d10 k3, PS): for the setting “1 µM”, the target mRNA inhibition is 29%.

Where the note is “1 µM”, GTTCTTAATTACATTC (sugars k3 d10 k3, PS) yielded a target mRNA inhibition of 64%.

For the sequence CTTCATAGTGGACTTC (sugars k3 d10 k3, PS), the target mRNA inhibition by setting is: (0.02 µM) 3%; (0.078 µM) 4%; (0.313 µM) 28%; (1 µM) 79%; (1.25 µM) 66%; (5 µM) 93%.

For TGGTAAACTGTATGCC (sugars k3 d10 k3, PS), the target mRNA inhibition (0.02 µM) was 0%; the target mRNA inhibition (0.078 µM) was 3%; the target mRNA inhibition (0.313 µM) was determined as 40%; the target mRNA inhibition (1 µM) was 76%; the target mRNA inhibition (1.25 µM) was 72%; the target mRNA inhibition (5 µM) is 85%.

For GTATTTGAGATTCACC (sugars k3 d10 k3, PS), where the note is “1 µM”, the target mRNA inhibition was determined as 41%.

For the sequence “ATAGCAAGCCAACAGA (sugars k3 d9 k3 e1, PS)”, the target mRNA inhibition (1 µM) is 30%.

For the sequence AATTGATACACCAATG (sugars k3 d10 k3, PS), the target mRNA inhibition (1 µM) worked out at 55%.

For the sequence AAGGAAGAGGCTAGGG (sugars k3 d10 k3, PS), the target mRNA inhibition (1 µM) was determined as 57%.

As to AGAGGATAGTGAACAT (sugars k3 d10 k3, PS), where the note is “1 µM”, the target mRNA inhibition is 59%.

The sequence CACCAATGCAGTTTGT (sugars k3 d10 k3, PS) showed a target mRNA inhibition (1 µM) of 42%.

As to “CAGGTTGAGATAAAGC (sugars k3 d9 k3 e1, PS)”, the target mRNA inhibition (1 µM) turned out to be 63%.

Consider TGACATAACTACTTCA (sugars k3 d10 k3, PS), for which the target mRNA inhibition (1 µM) stood at 22%.

Where the note is “1 µM”, “ATCTCTGGGACCAAGG (sugars k3 d9 k3 e1, PS)” showed a target mRNA inhibition of 53%.

TAGGCTTAGTGTAGAA (sugars k3 d10 k3, PS) displayed a target mRNA inhibition (1 µM) of 38%.

Turning to AATGTATCTTATAAGA (sugars k3 d10 k3, PS), the target mRNA inhibition (1 µM) was found to be 10%.

Under “1 µM”, ATAGTTCAAATTGGAT (sugars k3 d10 k3, PS) yielded a target mRNA inhibition of 48%.

As to GTCTAAATTATTGCCT (sugars k3 d10 k3, PS), the target mRNA inhibition (1 µM) was 45%.

For GAAGCCACTGTGACGA (sugars k3 d10 k3, PS), the target mRNA inhibition (1 µM) was found to be 58%.

In the case of “GCAGTTATTAGAAGTC (sugars k3 d9 k3 e1, PS)”, the target mRNA inhibition (1 µM) worked out at 67%.

Where the note is “1 µM”, TTGCAAGTTTATCAGT (sugars k3 d10 k3, PS) displayed a target mRNA inhibition of 66%.

In the case of “TCTTGACAATGGTTGA (sugars k3 d9 k3 e1, PS)”, the target mRNA inhibition (1 µM) was determined as 61%.

Sequence GATTAAGGCAAAGATC (sugars k3 d10 k3, PS) gave a target mRNA inhibition (1 µM) of 25%.

Take TAGCAGCTAAAATCCA (sugars k3 d10 k3, PS): the target mRNA inhibition (1 µM) came to 66%.

“TGCTAGTGCCAAACCA (sugars kkdddddddddkekek, PS)” registered a target mRNA inhibition (1 µM) of 58%.

GTAATTGCATCTGCTC (sugars k3 d10 k3, PS) yielded a target mRNA inhibition (1 µM) of 51%.

Under “1 µM”, CAGTAAAATTATGCCT (sugars k3 d10 k3, PS) returned a target mRNA inhibition of 38%.

“TCCTGTGTTAGCTTTA (sugars kkdddddddddkekek, PS)”: the target mRNA inhibition is, setting by setting: (0.02 µM) 18%; (0.078 µM) 29%; (0.313 µM) 54%; (1 µM) 79%; (1.25 µM) 71%; (5 µM) 86%.

In the case of TATGAAGTTAGTATAG (sugars k3 d10 k3, PS), for the setting “1 µM”, the target mRNA inhibition is 30%.

For the setting “1 µM”, CTTTGAGACTCTTGTT (sugars k3 d10 k3, PS) showed a target mRNA inhibition of 61%.

Sequence “TTCCATCTATCAGACT (sugars kkdddddddddkekek, PS)” showed a target mRNA inhibition (1 µM) of 33%.

Take AAATATAGAGGGTCCA (sugars k3 d10 k3, PS): under “1 µM”, the target mRNA inhibition amounted to 0%.

As for GGATTTCTAGGATGAT (sugars k3 d10 k3, PS), for the setting “1 µM”, the target mRNA inhibition was found to be 58%.

On to ACTGATACATACCACT (sugars k3 d10 k3, PS), for which the target mRNA inhibition (1 µM) is 52%.

Sequence GGACCAATATAATCCA (sugars k3 d10 k3, PS) registered a target mRNA inhibition (1 µM) of 20%.

Under “1 µM”, “ATCTATCAGACTTCTT (sugars kkdddddddddkekek, PS)” came in with a target mRNA inhibition of 37%.

Turning to TTCTGTGGCATGGCTA (sugars k3 d10 k3, PS), the target mRNA inhibition is, setting by setting: (0.02 µM) 0%; (0.078 µM) 0%; (0.313 µM) 34%; (1 µM) 78%; (1.25 µM) 67%; (5 µM) 91%.

GCACTCAGCTGCAGTT (sugars k3 d10 k3, PS) registered a target mRNA inhibition (1 µM) of 29%.

Regarding TAATCTTGAGGCAGGA (sugars k3 d10 k3, PS), the target mRNA inhibition (1 µM) was 17%.

With GATCTTAAGGATCATT (sugars k3 d10 k3, PS), the target mRNA inhibition (1 µM) was found to be 0%.

Regarding GTTAGCAGCTAAAATC (sugars k3 d10 k3, PS), the target mRNA inhibition (1 µM) was 45%.

Consider TGGTCTAAAGTGCTGG (sugars k3 d10 k3, PS), for which, where the note is “1 µM”, the target mRNA inhibition was determined as 61%.

In turn, TCCTATATACATCCAA (sugars k3 d10 k3, PS) yielded a target mRNA inhibition (1 µM) of 45%.
